One may read the DC50 as the midpoint of the concentration-degradation curve. What is called Dmax is the greatest extent of degradation seen. Lower therefore signals a partial loss of target.

Test [1] concerns Del19/T790M/C797S EGFR. In words: EGFR degradation HTRF assay in H1975-clone #28 (DTC) cells. The class given is cell-based. The note with it: H1975 # 28 DTC (Del19/T790M/C797S), 16h treatment; for DC50: HTRF; for Dmax (%): maximum percentage of degradation. The method, boiled down:
(§1)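 H1975 clones stably overexpressing mutant EGFR by lentivirus, with endogenous EGFR knocked out by sgRNA and homozygosity confirmed by sequencing, were treated 16 h at 37 °C with compounds in 0.2% DMSO medium, 8 doses from 10 uM in 5-fold dilution. Lysates were read by HTRF (665/620 nm); DC50 came from a four-parameter fit.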
In general terms: In TR-FRET formats the signal depends on donor and acceptor labels being close together.

In test [2] the target is T1, L858R/T790M/C797S EGFR (Homo sapiens, UniProt P00533, C797S/L858R/T790M).
T1 construct: expressed in transfected cells; host or cells: H1975 clone #25 (lentiviral over-expression, endogenous EGFR knocked out by sgRNA)
As to the kind of experiment: EGFR degradation HTRF assay in H1975-clone #25 (LTC) cells. The class given is cell-based. The note with it: 16h treatment; for DC50: H1975 # 25-LTC (L858R/T790M/C797S), HTRF; for Dmax: NCI-H1975, H1975 # 25-LTC (L858R/T790M/C797S), maximum percentage of degradation. The gist of the method:
as §1

T1 sequence (P00533 25-1210 T790M/C797S/L858R): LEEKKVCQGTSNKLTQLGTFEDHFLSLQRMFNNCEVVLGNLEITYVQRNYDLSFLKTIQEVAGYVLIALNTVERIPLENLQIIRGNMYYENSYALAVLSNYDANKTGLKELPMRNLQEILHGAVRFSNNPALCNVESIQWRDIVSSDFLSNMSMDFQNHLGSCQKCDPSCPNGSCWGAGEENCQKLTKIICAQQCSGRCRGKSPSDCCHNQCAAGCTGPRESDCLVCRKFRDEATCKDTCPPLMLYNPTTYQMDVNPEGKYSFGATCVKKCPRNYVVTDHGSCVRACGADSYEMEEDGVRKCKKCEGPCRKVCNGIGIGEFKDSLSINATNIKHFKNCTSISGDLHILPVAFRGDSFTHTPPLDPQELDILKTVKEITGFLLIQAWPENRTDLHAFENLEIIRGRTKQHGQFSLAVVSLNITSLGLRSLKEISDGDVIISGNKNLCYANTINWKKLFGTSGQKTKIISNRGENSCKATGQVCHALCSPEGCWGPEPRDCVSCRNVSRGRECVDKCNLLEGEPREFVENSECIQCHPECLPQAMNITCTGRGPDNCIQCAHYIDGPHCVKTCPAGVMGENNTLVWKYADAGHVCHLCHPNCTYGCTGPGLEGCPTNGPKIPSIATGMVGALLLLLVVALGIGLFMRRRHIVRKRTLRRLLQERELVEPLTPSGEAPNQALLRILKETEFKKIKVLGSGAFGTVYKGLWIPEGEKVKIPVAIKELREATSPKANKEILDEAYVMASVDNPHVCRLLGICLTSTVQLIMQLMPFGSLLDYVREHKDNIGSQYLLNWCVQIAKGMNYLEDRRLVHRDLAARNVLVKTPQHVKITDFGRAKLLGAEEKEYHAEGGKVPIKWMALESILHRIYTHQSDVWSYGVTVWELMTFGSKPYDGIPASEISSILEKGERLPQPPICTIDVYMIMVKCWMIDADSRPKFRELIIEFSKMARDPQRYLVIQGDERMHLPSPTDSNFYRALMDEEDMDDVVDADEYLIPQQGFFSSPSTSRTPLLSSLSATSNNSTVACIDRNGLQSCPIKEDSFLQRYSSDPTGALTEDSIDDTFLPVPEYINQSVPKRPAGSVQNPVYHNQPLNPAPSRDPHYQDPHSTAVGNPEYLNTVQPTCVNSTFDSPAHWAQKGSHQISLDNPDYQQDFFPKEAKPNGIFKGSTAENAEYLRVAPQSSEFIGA

With `Cc1cc2cc(n1)-c1cnn(C)c1OCCC[C@@H](C)CN1/C(=N/C2=O)Nc2ccc(CN3CCN(C(=O)[C@@H]4CCN(c5cc(F)c([C@H]6CCC(=O)NC6=O)c(F)c5)C4)CC34COC4)cc21` [Example 199, (R)-3-(2,6-difluoro-4-((R)-3-(5-(((R,E)-1^1,2^6,7-trimethyl-3-oxo-5^2,5^3-dihydro-1^1H,5^1H-11-oxa-4-aza-5(2,1)-benzo[d]imidazola-2(2,4)-pyridina-1(4,5)-pyrazolacycloundecaphane-5^6-yl)methyl)-2-oxa-5,8-diazaspiro[3.5]nonane-8-carbonyl)pyrrolidin-1-yl)phenyl)piperidine-2,6-dione], in test [1], the DC50 was found to be 0.752 nM and the “Dmax (%)” value is recorded as 73.3%. In test [2], this compound showed a DC50 of 0.638 nM and a Dmax of 76.5%.
Consider `Cc1cc2cc(n1)-c1cnn(C)c1OCCC[C@@H](C)CN1/C(=N/C2=O)Nc2ccc(N3CCC(N(C)C4CCN(c5cc(F)c([C@H]6CCC(=O)NC6=O)c(F)c5)CC4)CC3)cc21` [Example 394, (R)-3-(2,6-difluoro-4-(4-(methyl(1-((R,E)-1^1,2^6,7-trimethyl-3-oxo-5^2,5^3-dihydro-1^1H,5^1H-11-oxa-4-aza-5(2,1)-benzo[d]imidazola-2(2,4)-pyridina-1(4,5)-pyrazolacycloundecaphane-5^6-yl)piperidin-4-yl)amino)piperidin-1-yl)phenyl)piperidine-2,6-dione], for which, in test [1], it took 0.901 nM to reach half-maximal degradation (DC50) and the “Dmax (%)” value came out at 69.35%. In test [2], this compound returned a DC50 of 0.787 nM and a maximal degradation (Dmax) of 74.1%.
With `COC[C@@H]1CN(Cc2ccc3c(c2)N2C[C@H](C)CCCOc4c(cnn4C)-c4cc(cc(C)n4)C(=O)/N=C/2N3)CCN1C(=O)[C@@H]1CCN(c2cc(F)c([C@H]3CCC(=O)NC3=O)c(F)c2)C1` [Example 202, (R)-3-(2,6-difluoro-4-((R)-3-((S)-2-(methoxymethyl)-4-(((R,E)-1^1,2^6,7-trimethyl-3-oxo-5^2,5^3-dihydro-1^1H,5^1H-li-oxa-4-aza-5(2,1)-benzo[d]imidazola-2(2,4)-pyridina-(4,5)-pyrazolacycloundecaphane-5^6-yl)methyl)piperazine-1-carbonyl)pyrrolidin-1-yl)phenyl)piperidine-2,6-dione], in test [1], the DC50 was 1.32 nM and the “Dmax (%)” value was 72.07%. In test [2], this compound came in with a DC50 of 0.89 nM and a maximal degradation (Dmax) of 78.8%.
`CCN(C(=O)c1ccc2c(c1)N1C[C@H](C)CCCOc3c(cnn3C)-c3cc(cc(C)n3)C(=O)/N=C/1N2)C1CCN(CCc2cc(F)c([C@H]3CCC(=O)NC3=O)c(F)c2)CC1` [Example 241, (R,E)-N-(1-(4-((R)-2,6-dioxopiperidin-3-yl)-3,5-difluorophenethyl)piperidin-4-yl)-N-ethyl-1^1,2^6,7-trimethyl-3-oxo-5^2,5^3-dihydro-1^1H,5^1H-li-oxa-4-aza-5(2,1)-benzo[d]imidazola-2(2,4)-pyridina-1(4,5)-pyrazolacycloundecaphane-5^4-carboxamide]: in test [1], the 50% degradation concentration (DC50) worked out at 0.328 nM and the “Dmax (%)” value was determined as 76.68%. In test [2], half-maximal degradation (DC50) was put at 0.403 nM and the Dmax is 87.7%.
The corresponding values for `Cc1cc2cc(n1)-c1cnn(C)c1OCCC[C@@H](C)CN1/C(=N/C2=O)Nc2ccc(C(=O)NC3CN(CCc4cc(F)c([C@H]5CCC(=O)NC5=O)c(F)c4)C3)cc21` [Example 307, (R,E)-N-(1-(4-((R)-2,6-dioxopiperidin-3-yl)-3,5-difluorophenethyl)azetidin-3-yl)-1^1,2^6,7-trimethyl-3-oxo-5^2,5^3-dihydro-1^1H,5^1H-11-oxa-4-aza-5(2,1)-benzo[d]imidazola-2(2,4)-pyridina-1(4,5)-pyrazola cycloundecaphane-5^6-carboxamide] are 1.28 nM, 52.25%, 1.78 nM and 84.8%.
In the same order, the values of `Cc1cc2cc(n1)-c1cnn(C)c1OCCC[C@@H](C)CN1/C(=N/C2=O)Nc2ccc(C3CCN(C4CCN(c5cc(F)c([C@H]6CCC(=O)NC6=O)c(F)c5)CC4)CC3)cc21` [Example 332, (R)-3-(2,6-difluoro-4-(4-((R,E)-1^1,2^6,7-trimethyl-3-oxo-5^2,5^3-dihydro-1^1H,5^1H-11-oxa-4-aza-5(2,1)-benzo[d]imidazola-2(2,4)-pyridina-1(4,5)-pyrazolacycloundecaphane-5^6-yl)-[1,4′-bipiperidin]-1′-yl)phenyl)piperidine-2,6-dione] are 1.31 nM, 86.39%, 0.995 nM and 91.2%.
The corresponding values for `Cc1cc2cc(n1)-c1cnn(C)c1OCCC[C@@H](C)CN1/C(=N/C2=O)Nc2ccc(N3CCN(CC4CN(c5cc(F)c([C@H]6CCC(=O)NC6=O)c(F)c5)C4)[C@H](CO)C3)cc21` [Example 451, (R)-3-(2,6-difluoro-4-(3-(((S)-2-(hydroxymethyl)-4-((R,E)-1^1,2^6,7-trimethyl-3-oxo-5^2,5^3-dihydro-1^1H,5^1H-11-oxa-4-aza-5(2,1)-benzo[d]imidazola-2(2,4)-pyridina-1(4,5)-pyrazolacycloundecaphane-5^6-yl)piperazin-1-yl)methyl)azetidin-1-yl)phenyl)piperidine-2,6-dione] are 0.606 nM, 81.53%, 0.881 nM and 90.9%.
On to `Cc1cc2cc(n1)-c1cnn(C)c1OCCC[C@@H](C)CN1/C(=N/C2=O)Nc2ccc(N3CCN(C4CCN(c5ccc(C6CCC(=O)NC6=O)nc5C)CC4)[C@@H](CC#N)C3)cc21` (stereo partly drawn) [Example 456, 2-((2S)-1-(1-(6-(2,6-dioxopiperidin-3-yl)-2-methylpyridin-3-yl)piperidin-4-yl)-4-((R,E)-1^1,2^6,7-trimethyl-3-oxo-5^2,5^3-dihydro-1^1H,5^1H-11-oxa-4-aza-5(2,1)-benzo[d]imidazola-2(2,4)-pyridina-1(4,5)-pyrazolacycloundecaphane-5^6-yl)piperazin-2-yl)acetonitrile], for which, in test [1], it took 0.542 nM to reach half-maximal degradation (DC50) and the “Dmax (%)” value stood at 84.5%. In test [2], half-maximal degradation (DC50) was put at 0.676 nM and the maximal degradation (Dmax) was 93.2%.
Take `COCc1cc2c(cc1N1CCN(C3CCN(c4cc(F)c([C@H]5CCC(=O)NC5=O)c(F)c4)CC3)CC1)N1C[C@H](C)CCCOc3c(cnn3C)-c3cc(cc(C)n3)C(=O)/N=C/1N2` [Example 390, (R)-3-(2,6-difluoro-4-(4-(4-((R,E)-5^5-(methoxymethyl)-1^1,2^6,7-trimethyl-3-oxo-5^2,5^3-dihydro-1^1H,5^1H-11-oxa-4-aza-5(2,1)-benzo[d]imidazola-2(2,4)-pyridina-1(4,5)-pyrazolacycloundecaphane-5^6-yl)piperazin-1-yl)piperidin-1-yl)phenyl)piperidine-2,6-dione]: in test [1], half-maximal degradation (DC50) was put at 1.69 nM and the “Dmax (%)” value is 73.87%. In test [2], this compound yielded a DC50 of 2.49 nM and a Dmax of 87.7%.
For the compound `Cc1cc2cc(n1)-c1cnn(C)c1OCCC[C@@H](C)CN1/C(=N/C2=O)Nc2ccc(C(=O)N(C)[C@@H](C)C3CCN(CCc4cc(F)c(C5CCC(=O)NC5=O)c(F)c4)CC3)cc21` (stereo partly drawn) [Example 272, (R,E)-N—((S)-1-(1-(4-((R)-2,6-dioxopiperidin-3-yl)-3,5-difluorophenethyl)piperidin-4-yl)ethyl)-N,1,2^6,7-tetramethyl-3-oxo-5^2,5^3-dihydro-1^1H,5^1H-11-oxa-4-aza-5(2,1)-benzo[d]imidazola-2(2,4)-pyridina-1(4,5)-pyrazolacycloundecaphane-5^6-carboxamide], in test [1], it took 1.52 nM to reach half-maximal degradation (DC50) and the “Dmax (%)” value came out at 76.03%. For the same compound, in test [2], it took 1.36 nM to reach half-maximal degradation (DC50) and the Dmax was found to be 87.2%.
The corresponding values for `Cc1cc2cc(n1)-c1cnn(C)c1OCCC[C@@H](C)CN1/C(=N/C2=O)Nc2ccc(CN3CC4CC(C3)N4C(=O)[C@@H]3CCN(c4cc(F)c([C@H]5CCC(=O)NC5=O)c(F)c4)C3)cc21` [Example 163, (3R)-3-(2,6-difluoro-4-((3R)-3-(3-(((R,E)-1^1,2^6,7-trimethyl-3-oxo-5^2,5^3-dihydro-1^1H,5^1H-11-oxa-4-aza-5(2,1)-benzo[d]imidazola-2(2,4)-pyridina-1(4,5)-pyrazolacycloundecaphane-5^6-yl)methyl)-3,6-diazabicyclo[3.1.1]heptane-6-carbonyl)pyrrolidin-1-yl)phenyl)piperidine-2,6-dione] are 1.76 nM, 66.41%, 1.14 nM and 83.1%.
In the same order, the values of `Cc1cc2cc(n1)-c1cnn(C)c1OCCC[C@@H](C)CN1/C(=N/C2=O)Nc2ccc(N3CC(C(=O)N4CCN(c5cc(F)c([C@H]6CCC(=O)NC6=O)c(F)c5)CC4)C3)cc21` [Example 354, (R)-3-(2,6-difluoro-4-(4-(1-((R,E)-1^1,2^6,7-trimethyl-3-oxo-5^2,5^3-dihydro-1^1H,5^1H-11-oxa-4-aza-5(2,1)-benzo[d]imidazola-2(2,4)-pyridina-1(4,5)-pyrazolacycloundecaphane-5^6-yl)azetidine-3-carbonyl)piperazin-1-yl)phenyl)piperidine-2,6-dione] are 0.501 nM, 72.74%, 0.59 nM and 89.3%.

The values above are taken from US20240342292A1, “Compounds for the Degradation of EGFR Kinase” (BeiGene Switzerland GmbH, priority 2021, published 2024).
